ChEMBL document CHEMBL3046226, “Novel glycol benzyl ether herbicides: Herbicidal activity of 3,3a,5,9b-tetrahydro-2H-furo[3,2-c][2]benzopyran derivatives” (2006)
Converted amounts (≈) assume the structure as drawn.

Experiments:
Assay type in all cases: functional
Echinochloa crus-galli [1] = assay: Herbicidal activity against Echinochloa crus-galli (barnyard grass)
Echinochloa crus-galli [2] = assay: Herbicidal activity against Echinochloa crus-galli (barnyard grass) assessed as growth rate at 30 g/acre
Oryza sativa [3] = assay: Phytotoxicity in Oryza sativa (rice) assessed as assessed as growth rate at 10 g/acre by Oryza sativa (rice) injury assay
Echinochloa crus-galli [4] = assay: Herbicidal activity against Echinochloa crus-galli (barnyard grass) assessed as growth rate at 3 g/acre
Echinochloa crus-galli [5] = assay: Herbicidal activity against Echinochloa crus-galli (barnyard grass) assessed as growth rate at 1 g/acre
Oryza sativa [6] = assay: Phytotoxicity in Oryza sativa (rice) assessed as assessed as growth rate at 30 g/acre by Oryza sativa (rice) injury assay

SMILES | MIC (Echinochloa crus-galli [1]) [µg/mL] | Activity (Echinochloa crus-galli [2]) [%] | Activity (Oryza sativa [3]) [%] | Activity (Echinochloa crus-galli [4]) [%] | Activity (Echinochloa crus-galli [5]) [%] | Activity (Oryza sativa [6]) [%]
CC[C@H]1O[C@@H]2c3ccccc3CO[C@@H]2[C@H]1OCc1ccsc1 | 0.3 (≈ 0.948 µM) | 0 | 91 | 71 | 91 | 91
CC[C@H]1O[C@@H]2c3ccccc3CO[C@@H]2[C@H]1OCc1ccc2ccccc2c1 | > 10 | 91 | 91 | 91 | 91 | 91
CC[C@H]1O[C@@H]2c3ccccc3CO[C@@H]2[C@H]1OCc1cccc2ccccc12 | 10 (≈ 27.7 µM) | 91 | 91 | 91 | 91 | 91
CC[C@H]1O[C@@H]2c3ccccc3CO[C@@H]2[C@H]1OCC1CCCCC1 | 10 (≈ 31.6 µM) | 11 | 91 | 91 | – | 91
CC[C@H]1O[C@@H]2c3ccccc3CO[C@@H]2[C@H]1OC(=O)c1ccccc1 | 3.3 (≈ 10.2 µM) | 6 | 91 | 91 | – | 91
CC[C@H]1O[C@@H]2c3ccccc3CO[C@@H]2[C@H]1OC(C)=O | 80 (≈ 305 µM) | 91 | 91 | 91 | 91 | 91
CC[C@H]1O[C@@H]2c3ccccc3CO[C@@H]2[C@H]1O[Si](C)(C)C(C)(C)C | > 100 | 91 | 91 | 91 | 91 | 91
CC[C@H]1O[C@@H]2c3ccccc3[C@H](C)O[C@@H]2[C@H]1OCc1ccccc1F | 0.2 (≈ 0.584 µM) | 0 | 11 | 0 | 0 | 0
CC[C@H]1O[C@@H]2c3ccccc3[C@@H](C)O[C@@H]2[C@H]1OCc1ccccc1F | 0.7 (≈ 2.04 µM) | 0 | 91 | 6 | 11 | 0
CC[C@@H]1O[C@@H]2[C@@H](OCc3ccccc3F)[C@@H](CC)O[C@@H]2c2ccccc21 | 0.4 (≈ 1.12 µM) | 0 | – | 11 | 91 | 0
CC[C@H]1O[C@@H]2[C@@H](OCc3ccccc3F)[C@@H](CC)O[C@@H]2c2ccccc21 | 0.8 (≈ 2.24 µM) | 0 | – | 91 | 91 | 71
CC[C@H]1O[C@@H]2c3ccccc3C(C)(CBr)O[C@@H]2[C@H]1OCc1ccccc1F (stereo not given in full) | > 3 | 0 | 91 | 71 | – | 91
CC[C@H]1O[C@@H]2c3ccccc3C(C)O[C@@H]2[C@H]1OCc1ccccc1C (stereo not given in full) | 0.2 (≈ 0.591 µM) | 0 | 11 | 0 | 6 | 11
CC[C@H]1O[C@@H]2c3ccccc3C(=O)O[C@@H]2[C@H]1OCc1ccccc1C | 3 (≈ 8.87 µM) | 11 | 91 | – | – | 91
CC[C@H]1O[C@@H]2C[C@](C)(c3ccccc3)O[C@@H]2[C@H]1OCc1ccccc1F | 0.1 (≈ 0.281 µM) | 0 | 91 | 6 | – | 6
CC[C@H]1O[C@@H]2c3sccc3CO[C@@H]2[C@H]1OCc1ccccc1F | 0.1 (≈ 0.299 µM) | 0 | 6 | 0 | 6 | 0
CC[C@H]1O[C@@H]2c3ccsc3CO[C@@H]2[C@H]1OCc1ccccc1F | 0.3 (≈ 0.897 µM) | 0 | 91 | 0 | 6 | 91

SMILES | MIC (Echinochloa crus-galli [1]) [µg/mL] | Activity (Echinochloa crus-galli [2]) [%] | Activity (Oryza sativa [3]) [%] | Activity (Echinochloa crus-galli [4]) [%] | Activity (Echinochloa crus-galli [5]) [%] | Activity (Oryza sativa [6]) [%]
CC[C@H]1O[C@@H]2c3ccsc3CO[C@@H]2[C@H]1OCc1ccccc1C | 0.7 (≈ 2.12 µM) | 0 | 91 | 11 | – | 91
CC[C@H]1O[C@@H]2c3occc3CO[C@@H]2[C@H]1OCc1ccccc1C | 0.2 (≈ 0.636 µM) | 6 | 91 | 41 | 91 | 71
CC[C@H]1O[C@@H]2c3ccccc3CO[C@@H]2[C@H]1O | – | 91 | 91 | 91 | 91 | 91
CC[C@H]1O[C@@H]2c3ccccc3CO[C@@H]2[C@H]1OCc1ccccc1 | 0.4 (≈ 1.29 µM) | 0 | 11 | 6 | 11 | 0
CC[C@H]1O[C@@H]2c3ccccc3CO[C@@H]2[C@H]1OCc1ccccc1F | 0.2 (≈ 0.609 µM) | 0 | 71 | 6 | 11 | 11
CC[C@H]1O[C@@H]2c3ccccc3CO[C@@H]2[C@H]1OCc1cccc(F)c1 | 0.3 (≈ 0.914 µM) | 0 | 91 | 0 | 11 | 91
CC[C@H]1O[C@@H]2c3ccccc3CO[C@@H]2[C@H]1OCc1ccc(F)cc1 | 1 (≈ 3.05 µM) | 0 | 91 | 0 | 11 | 71
CC[C@H]1O[C@@H]2c3ccccc3CO[C@@H]2[C@H]1OCc1ccccc1Cl | 0.2 (≈ 0.58 µM) | 0 | 91 | 6 | – | 91
CC[C@H]1O[C@@H]2c3ccccc3CO[C@@H]2[C@H]1OCc1ccccc1C | 0.4 (≈ 1.23 µM) | 0 | 11 | 0 | 11 | 0
CCc1ccccc1CO[C@@H]1[C@H]2OCc3ccccc3[C@H]2O[C@@H]1CC | 0.6 (≈ 1.77 µM) | 0 | 91 | 11 | – | 91
CC[C@H]1O[C@@H]2c3ccccc3CO[C@@H]2[C@H]1OCc1ccccc1C#N | 3.2 (≈ 9.54 µM) | 0 | 91 | 91 | 91 | 91
CC[C@H]1O[C@@H]2c3ccccc3CO[C@@H]2[C@H]1OCc1ccccc1C(F)(F)F | 0.4 (≈ 1.06 µM) | 0 | 91 | 71 | 91 | 91
CC[C@H]1O[C@@H]2c3ccccc3CO[C@@H]2[C@H]1OC(C)c1ccccc1 (stereo not given in full) | 3 (≈ 9.25 µM) | 0 | 91 | 41 | – | 91
CC[C@H]1O[C@@H]2c3ccccc3CO[C@@H]2[C@H]1OC1CCc2ccccc21 (stereo not given in full) | 0.3 (≈ 0.892 µM) | 0 | 91 | 41 | – | 91
CC[C@H]1O[C@@H]2c3ccccc3CO[C@@H]2[C@H]1OCc1cccs1 | 0.8 (≈ 2.53 µM) | 0 | 91 | 11 | 91 | 91
Cc1ccccc1CO[C@H]1C[C@]2(C(C)C)CC[C@@]1(C)O2 (relative stereo) [REL-CINMETHYLIN] | 0.1 (≈ 0.364 µM) | 0 | 41 | 0 | 0 | 11
CC[C@H]1O[C@@H]2c3sccc3COC2[C@H]1OCc1ccccc1C (single isomer, unassigned) | 0.1 (≈ 0.303 µM) | 0 | 91 | 0 | 6 | 91
